Results published in ChEMBL document CHEMBL1148060, “Biosynthetic Study and Radioisotope Labeling of Inostamycin” (J Nat Prod, 1994).

System: NRK
Assay: Cellular uptake in rat NRK cells assessed as [14C]inostamycin level after 2 hrs
Assay type: ADME, cell-based

- Activity: Dose-dependent effect
SMILES: CCC[C@H](O)[C@@]1(CC)C[C@@H](C)[C@](O)([C@]2(C)C[C@H](C)[C@@H]([C@@H](CC)C(=O)[C@@H](C)[C@@H](O)[C@H](C)[C@H]3O[C@@](O)([C@H](CC)C(=O)O)[C@@H](C)[C@H](O)[C@H]3CC)O2)O1 [INOSTAMYCIN]
